Test results: US11986540B2, “Compositions including pafolacianine for the identification of malignant lesions” (ON TARGET LABORATORIES, LLC., priority 2022, dated 2024)
Read-outs that look alike come from different tables or passages of the source.

What was measured:
tumor = assay: Tumor to background ratios with different mass doses; assay type: in vivo, human; details: dose of 0.025 mg per 1 kg bodyweight
Description: Tumor to background ratios were studied with different mass doses of pafolacianine.

[1] = Phase 1a pharmacokinetics in healthy volunteers, single IV administration; assay type: in vivo, human; details: for AUC(0-t) / Tmax / AUC(0-inf) / clearance / Cmax / half-life / Vd: human, plasma, intravenous
Description: A total of 73 potentially eligible healthy volunteers gave written acknowledgement of informed consent to participate in a Phase 1a study to assess the safety and pharmacokinetics of pafolacianine versus placebo. Fifty-four were found suitable for participation, of which 30 were enrolled in the study. Twenty-four subjects were white, 1 subject was Black/African-American, 1 was Asian, 1 was mixed race and 3 were of another race.
The pharmacokinetic (PK) analysis population was defined as all subjects who were randomized and received study treatment. Of note, the drug infusion was stopped prematurely in 1 subject, and interrupted in another subject. The pharmacokinetics of pafolacianine following single IV administration of 0.025, 0.05, 0.1, or 0.2 mg/kg was determined using non-compartmental analysis; the key PK parameters are summarized in Table 7.

[2] = Repeat once-weekly IV dose toxicokinetics in rats; assay type: in vivo; details: for increase in AUCinf: after 14.9-fold increase in dose; for half-life / AUC(0-inf) / C0 / clearance / Vd: rat, in vivo; for Vd: read-out: Vss
Method: […] On both Day 1 and Day 13, increases in pafolacianine exposure (AUCinf) were trending slightly greater than dose proportional, noting that sparse blood sampling was employed so the variability in the AUCs could not be assessed. […] CL was slow (relative to hepatic blood flow) and Vss was moderate. Mean T1/2 ranged from approximately 6 to 11 hours.

[3] = dose escalated 8-fold (0.025 to 0.2 mg/kg)
[4] = 0.025 mg/kg, in 20 ml 0.9% NaCl, 10- and 60-min infusion
[5] = 0.025 mg/kg, in 220 ml 5% dextrose, 60-min infusion
[6] = 0.05 mg/kg, in 220 ml 5% dextrose, 60-min infusion
[7] = 0.1 mg/kg, in 220 ml 5% dextrose, 60-min infusion
[8] = 0.2 mg/kg, in 220 ml 5% dextrose, 60-min infusion
[9] = 0.2 mg/kg, with pre-treatment of antihistamine (clemastine)
[10] = female, iv, 3.1 mg/kg, rats F, 3.1 mg/kg once-weekly IV, Day 0
[11] = female, iv, 3.1 mg/kg, rats F, 3.1 mg/kg once-weekly IV, Day 13
[12] = female, iv, 30.8 mg/kg, rats F, 30.8 mg/kg once-weekly IV, Day 0

## CC1(C)C(=CC=C2CCCC(C=CC3=[N+](CCCCS(=O)(=O)[O-])c4ccc(S(=O)(=O)O)cc4C3(C)C)=C2Oc2ccc(CC(NC(=O)c3ccc(NCc4cnc5nc(N)[nH]c(=O)c5n4)cc3)C(=O)O)cc2)N(CCCCS(=O)(=O)O)c2ccc(S(=O)(=O)O)cc21 (stereo not shown) [pafolacianine]
tumor
  tumor to background ratio: High
[1]; [3]
  increase in AUClast: ~22 fold
  increase in Cmax: ~12 fold
[1]; [4]
  AUC(0-t): 63.4 ng·h/mL
  Tmax: 0.75 h
[1]; 0.025 mg/kg, in 20 ml 0.9% NaCl, 10- and 60-min infusion, read-out: AUC0-inf
  AUC(0-inf): 66.4 ng·h/mL
[1]; 0.025 mg/kg, in 20 ml 0.9% NaCl, 10- and 60-min infusion, read-out: CL (converted)
  clearance: 443 mL/min
[1]; 0.025 mg/kg, in 20 ml 0.9% NaCl, 10- and 60-min infusion, read-out: Cmax
  Cmax: 93.3 ng/mL
[1]; 0.025 mg/kg, in 20 ml 0.9% NaCl, 10- and 60-min infusion, read-out: T1/2 (converted)
  half-life: 0.416 h
[1]; 0.025 mg/kg, in 20 ml 0.9% NaCl, 10- and 60-min infusion, read-out: Vz
  Vd: 15.9 L
[1]; [5]
  AUC(0-t): 61.6 ng·h/mL
  Tmax: 0.95 h
[1]; 0.025 mg/kg, in 220 ml 5% dextrose, 60-min infusion, read-out: AUC0-inf
  AUC(0-inf): 63.6 ng·h/mL
[1]; 0.025 mg/kg, in 220 ml 5% dextrose, 60-min infusion, read-out: CL (converted)
  clearance: 477 mL/min
[1]; 0.025 mg/kg, in 220 ml 5% dextrose, 60-min infusion, read-out: Cmax
  Cmax: 59.1 ng/mL
[1]; 0.025 mg/kg, in 220 ml 5% dextrose, 60-min infusion, read-out: T1/2 (converted)
  half-life: 0.438 h
[1]; 0.025 mg/kg, in 220 ml 5% dextrose, 60-min infusion, read-out: Vz
  Vd: 17.1 L
[1]; 0.025 mg/kg, read-out: area under the plasma concentration-time curve to infinity (AUCinf)
  AUC(0-inf): 63.6 ± 12.6 ng·h/mL
[1]; 0.025 mg/kg, read-out: elimination half-life (converted)
  half-life: 0.44 ± 0.23 h
[1]; 0.025 mg/kg, read-out: mean maximum plasma concentration (Cmax)
  Cmax: 59.1 ± 5.94 ng/mL
[1]; 0.025 mg/kg, read-out: mean plasma clearance (converted)
  clearance: 477 mL/min
[1]; [6]
  AUC(0-t): 250 ng·h/mL
  Tmax: 1.03 h
[1]; 0.05 mg/kg, in 220 ml 5% dextrose, 60-min infusion, read-out: AUC0-inf
  AUC(0-inf): 258 ng·h/mL
[1]; 0.05 mg/kg, in 220 ml 5% dextrose, 60-min infusion, read-out: CL (converted)
  clearance: 245 mL/min
[1]; 0.05 mg/kg, in 220 ml 5% dextrose, 60-min infusion, read-out: Cmax
  Cmax: 184 ng/mL
[1]; 0.05 mg/kg, in 220 ml 5% dextrose, 60-min infusion, read-out: T1/2 (converted)
  half-life: 0.931 h
[1]; 0.05 mg/kg, in 220 ml 5% dextrose, 60-min infusion, read-out: Vz
  Vd: 19.2 L
[1]; [7]
  AUC(0-t): 785 ng·h/mL
  Tmax: 1.02 h
[1]; 0.1 mg/kg, in 220 ml 5% dextrose, 60-min infusion, read-out: AUC0-inf
  AUC(0-inf): 799 ng·h/mL
[1]; 0.1 mg/kg, in 220 ml 5% dextrose, 60-min infusion, read-out: CL (converted)
  clearance: 161 mL/min
[1]; 0.1 mg/kg, in 220 ml 5% dextrose, 60-min infusion, read-out: Cmax
  Cmax: 450 ng/mL
[1]; 0.1 mg/kg, in 220 ml 5% dextrose, 60-min infusion, read-out: T1/2 (converted)
  half-life: 1.64 h
[1]; 0.1 mg/kg, in 220 ml 5% dextrose, 60-min infusion, read-out: Vz
  Vd: 22.2 L
[1]; [8]
  AUC(0-t): 1310 ng·h/mL
  Tmax: 1.09 h
[1]; 0.2 mg/kg, in 220 ml 5% dextrose, 60-min infusion, read-out: AUC0-inf
  AUC(0-inf): 1340 ng·h/mL
[1]; 0.2 mg/kg, in 220 ml 5% dextrose, 60-min infusion, read-out: CL (converted)
  clearance: 167 mL/min
[1]; 0.2 mg/kg, in 220 ml 5% dextrose, 60-min infusion, read-out: Cmax
  Cmax: 640 ng/mL
[1]; 0.2 mg/kg, in 220 ml 5% dextrose, 60-min infusion, read-out: T1/2 (converted)
  half-life: 2.66 h
[1]; 0.2 mg/kg, in 220 ml 5% dextrose, 60-min infusion, read-out: Vz
  Vd: 38.8 L
[1]; [9]
  AUC(0-t): 1400 ng·h/mL
  Tmax: 1 h
[1]; 0.2 mg/kg, with pre-treatment of antihistamine (clemastine), read-out: AUC0-inf
  AUC(0-inf): 1430 ng·h/mL
[1]; 0.2 mg/kg, with pre-treatment of antihistamine (clemastine), read-out: CL (converted)
  clearance: 170 mL/min
[1]; 0.2 mg/kg, with pre-treatment of antihistamine (clemastine), read-out: Cmax
  Cmax: 765 ng/mL
[1]; 0.2 mg/kg, with pre-treatment of antihistamine (clemastine), read-out: T1/2 (converted)
  half-life: 2.4 h
[1]; 0.2 mg/kg, with pre-treatment of antihistamine (clemastine), read-out: Vz
  Vd: 36 L
[1]; 0.025 to 0.2 mg/kg, read-out: clearance over the dose range
  clearance: 167 to 483 mL/min
[1]; 0.025 to 0.2 mg/kg, read-out: half-life values range
  half-life: 0.4 to 2.7 h
[1]; read-out: mean volume of distribution (Vz)
  Vd: 17.1 ± 5.99 L
[2]; Day 1, genders combined
  increase in AUCinf: ~18 fold
[2]; Day 13, genders combined
  increase in AUCinf: ~20 fold
[2]; both sexes, intravenous, rats, all doses and days, read-out: Mean T1/2 range
  half-life: 6 to 11 h
[2]; [10]
  AUC(0-inf): 19100 ng·h/mL
  C0: 21200 ng/mL
  clearance: 2.72 mL/min/kg
  Vd: 1.08 L/kg
[2]; female, iv, 3.1 mg/kg, rats F, 3.1 mg/kg once-weekly IV, Day 0, read-out: T1/2 (converted)
  half-life: 7.18 h
[2]; [11]
  AUC(0-inf): 16600 ng·h/mL
  C0: 4760 ng/mL
  clearance: 3.1 mL/min/kg
  Vd: 1.7 L/kg
[2]; female, iv, 3.1 mg/kg, rats F, 3.1 mg/kg once-weekly IV, Day 13, read-out: T1/2 (converted)
  half-life: 8.43 h
[2]; [12]
  AUC(0-inf): 237000 ng·h/mL
  C0: 194000 ng/mL
